Values after ≈ are worked out from the molar mass of the structure shown.
Tests used:
M. smegmatis MC2155 = assay: toxicity to M. smegmatis (growth suppression, MIC); assay type: cell-based; details: for suppression of growth of M. smegmatis: M. smegmatis MC2155
Experimental: To determine if the results in the S. coelicolor based assay had relevance to Mycobacteria, all fourteen compounds were tested for toxicity to M. smegmatis MC2155, a surrogate of M. tuberculosis. […] Three of these inhibitory compounds were trans-disubstituted β-lactones with unbranched alkyl substituents on both the α- and β-carbons (β-lactones 2-4). For these molecules, there was a positive correlation between the length of the alkyl group on the α-carbon and antibacterial activity. […] The compounds were subsequently shown to be inhibitors of ClpP in vitro. In Mycobacteria, ClpP inhibition is associated with killing. Previous reports of ClpP inhibition generally described suppression of virulence in pathogenic bacteria (S. aureus and L. monocytogenes).

[1] = tested on: S. coelicolor strain with the neo reporter gene; assay: neo reporter strain assay (kanamycin resistance under PopR-dependent promoter); assay type: cell-based, S. coelicolor M145; details: DNAgar, 10 μg/mL kanamycin, optical density at 48 hrs
M. tuberculosis H37Rv = assay: toxicity to M. tuberculosis (growth inhibition, MIC); assay type: cell-based

With `CCCCCC1C(=O)OC1CCC` (stereo not drawn) [Compound 2] the “suppression of growth of M. smegmatis” value (M. smegmatis MC2155) was “suppressed the growth of M. smegmatis” and the “growth of reporter strain on media supplemented with kanamycin” value (“growth of reporter strain” for short) [1] was “enabled the reporter strain to grow on media supplemented with kanamycin”.

With `CCCC1OC(=O)C1Cc1ccccc1` (stereo not drawn) [Compound 7] the “inhibition of growth of M. tuberculosis H37Rv” value (M. tuberculosis H37Rv) was “inhibited growth of M. tuberculosis H37Rv”, the MIC (M. tuberculosis H37Rv; Mycobacterium tuberculosis, H37RV, M. tuberculosis) was 28 µg/mL (≈ 137 µM) and the “suppression of growth of M. smegmatis” value (M. smegmatis MC2155) was “suppressed the growth of M. smegmatis”. For the same compound, the MIC (M. smegmatis MC2155; Mycolicibacterium smegmatis, MC2155, M. smegmatis) was 10 µg/mL (≈ 49 µM) and the “growth of reporter strain” value [1] was “enabled the reporter strain to grow on media supplemented with kanamycin”.

In the case of `C=CCCCCCCCC1C(=O)OC1CCC` (stereo not drawn) [Compound 4], the “inhibition of growth of M. tuberculosis H37Rv” value (M. tuberculosis H37Rv) is reported as “inhibited growth of M. tuberculosis H37Rv”, the “suppression of growth of M. smegmatis” value (M. smegmatis MC2155) is reported as “suppressed the growth of M. smegmatis” and the “growth of reporter strain” value [1] is reported as “enabled the reporter strain to grow on media supplemented with kanamycin”.

In the case of `CCCCCCCC1C(=O)OC1CCC` (stereo not drawn) [Compound 3], the “suppression of growth of M. smegmatis” value (M. smegmatis MC2155) is reported as “suppressed the growth of M. smegmatis” and the “growth of reporter strain” value [1] is reported as “enabled the reporter strain to grow on media supplemented with kanamycin”.

From patent publication US20160221977A1, “ANT[…]-LACTONES, AND METHODS OF IDENTIFICATION, MANUFACTURE AND USE” (priority 2014, published 2016)
